Patent US20100086513A1, “Method for Effecting Antimicrobial Activity Using Polyamine Analogues” (priority 2008, published 2010)
≈ marks a conversion by molar mass, not a printed value.

Tests used:
Y. pestis KIM6+ [1] = assay type: cell-based, Yersinia pestis
[2] = tested on: E. coli K12 cells + pBR322; assay type: cell-based, Escherichia coli
Y. pestis KIM6+ [3] = assay type: cell-based, Yersinia pestis; remark: listed apart in the source
E. coli K12 = assay type: cell-based, Escherichia coli

N=C(NCCCNCCCCCCCNCCCNC(=N)NC(=N)NCCC(c1ccccc1)c1ccccc1)NC(=N)NCCC(c1ccccc1)c1ccccc1 [XBI-54-13B]
MIC (Y. pestis KIM6+ [1]): 1.56 µg/mL (≈ 1.95 µM)
release of β-lactamase (Nitrocefin absorption at 486 nm) [2]: quickly causes a release of β-lactamase

NCCCCNCCCN [spermidine]
transport of [14C] spermidine (Y. pestis KIM6+ [3]): effectively unable to transport
transport of [14C] spermidine (E. coli K12): able to transport a significant amount

CC[C@H](C)[C@H](NC(=O)CN)C(=O)NCC(=O)N[C@@H](C)C(=O)N[C@H](C(=O)N[C@@H](CC(C)C)C(=O)N[C@@H](CCCCN)C(=O)N[C@H](C(=O)N[C@@H](CC(C)C)C(=O)N[C@H](C(=O)N[C@H](C(=O)NCC(=O)N[C@@H](CC(C)C)C(=O)N1CCC[C@H]1C(=O)N[C@@H](C)C(=O)N[C@@H](CC(C)C)C(=O)N[C@H](C(=O)N[C@@H](CO)C(=O)N[C@@H](Cc1c[nH]c2ccccc12)C(=O)N[C@H](C(=O)N[C@@H](CCCCN)C(=O)N[C@@H](CCCNC(=N)N)C(=O)N[C@@H](CCCCN)C(=O)N[C@@H](CCCNC(=N)N)C(=O)N[C@@H](CCC(N)=O)C(=O)N[C@@H](CCC(N)=O)C(N)=O)[C@@H](C)CC)[C@@H](C)CC)[C@@H](C)O)[C@@H](C)O)C(C)C)C(C)C [mellitin]
release of β-lactamase (Nitrocefin absorption at 486 nm) [2]: a reaction of Nitrocefin to β-lactamase occurs almost immediately

NCCCCN [putrescine]
uptake of [14C] putrescine (Y. pestis KIM6+ [3]): ability to transport significant amounts
uptake of [14C] putrescine (E. coli K12): ability to transport significant amounts
